These results are taken from patent US20150250785A1, “Tropomyosin-Related Kinase Inhibitors” (PFIZER LIMITED, priority 2012, published 2015).

The assay concerns the target T1, TRKA (NTRK1) recombinant His-tagged cytoplasmic domain aa 441-796 (Homo sapiens, UniProt P04629).
T1 construct: aa 441-; 4 nM; 40 uM; 35 min; (NTRK1); 796; His; purchased Invitrogen PV3144
Nature of the assay: Isolated TRK enzyme assay (HTRF KinEASE-TK), PV3144 TrkA. Format: biochemical. To be noted: 4 nM enzyme, 40 uM ATP, 35 min, arithmetic mean where more than one reading. As to the method: Isolated TRK Enzyme assays use the HTRF KinEASE-TK kit (Cisbio Cat#62TK0PEJ) with recombinant His-tagged cytoplasmic domains of each TRK receptor sourced from Invitrogen (see table below). This activity-assay measures the phosphorylation of tyrosine residues within a substrate from the HTRF kit which has been validated by Cisbio for a variety of tyrosine kinases including the TRK receptors.
0.5 mM stock solutions of test compounds are prepared and serially diluted in 100% DMSO. A standard curve using the compound of Example 135 disclosed in WO2005/116035 of 150 uM is also prepared on each test plate. High percentage effect (HPE) is defined by 150 uM (using the compound of Example 135 as disclosed in WO2005/116035) and 0% effect (ZPE) is defined by 100% DMSO. Greiner low volume black plates containing 0.2 ul of serially diluted compound, standard and HPE/ZPE are created using the Bravo nanolitre dispenser.
1× enzyme buffer is prepared from 5× Enzymatic Buffer from the Cisbio KinEASE TK kit using MilliQ water. The buffer is then supplemented with 10 mM MgCl and 2 mM DTT (both from Sigma). In the case of TRKB, the buffer is also supplemented with 125 nM Supplement Enzymatic Buffer (SEB) from the Cisbio kit.
2×FAC of enzyme and 2×FAC ATP diluted in 1× complete enzyme buffer is incubated at room temperature for 20 minutes to preactivate the enzyme. Following this preactivation step, 5 ul/well of enzyme+ATP mix is added using a Multidrop Micro to the assay plate, spotted with 0.2 ul 100% DMSO compound. […]
After the Detection Reagent addition, plates are covered and incubated at room temperature for 60 minutes. HTRF signal is read using an Envision reader, measured as a ratio of emissions at two different wavelengths, 620 nm and 665 nm. […] Test compound data are expressed as percentage inhibition defined by HPE and ZPE values for each plate. […]
Below are TrkA IC50 data generated using the PV3144 TrkA enzyme assay. Where more than one reading was taken, the arithmetic mean is presented.
(In general: In TR-FRET formats the signal depends on donor and acceptor labels being close together.)

By IC50 is commonly meant the concentration that inhibits the measured activity by half.

T1 sequence (P04629 441-796): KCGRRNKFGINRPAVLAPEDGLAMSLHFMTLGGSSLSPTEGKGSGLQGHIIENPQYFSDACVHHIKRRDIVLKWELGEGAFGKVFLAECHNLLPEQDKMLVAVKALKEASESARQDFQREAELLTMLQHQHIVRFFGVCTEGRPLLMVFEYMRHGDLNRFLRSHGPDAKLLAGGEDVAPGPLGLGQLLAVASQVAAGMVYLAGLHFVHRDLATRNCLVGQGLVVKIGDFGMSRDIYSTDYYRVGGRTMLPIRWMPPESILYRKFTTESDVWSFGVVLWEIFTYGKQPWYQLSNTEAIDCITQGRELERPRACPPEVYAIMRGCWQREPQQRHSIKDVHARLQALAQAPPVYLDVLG

Turning to `CC(C)n1nc(C(=O)c2ccnc(NC(=O)Cc3coc(C4CC4)n3)c2)c2cnccc21` [Example 1, 2-(2-cyclopropyl-1,3-oxazol-4-yl)-N-{4-[(1-isopropyl-1H-pyrazolo[4,3-c]pyridin-3-yl)carbonyl]pyridin-2-yl}acetamide], the IC50 is 21 nM. As for `CC(C)c1nc(C(=O)c2ccnc(NC(=O)Cn3ccc(C(F)(F)F)n3)c2)c2cnccn12` [Example 3, N-{4-[(3-isopropylimidazo[1,5-a]pyrazin-1-yl)carbonyl]pyridin-2-yl}-2-[3-(trifluoromethyl)-1H-pyrazol-1-yl]acetamide], the figure is 16.6 nM; as for `CC(C)n1nc(C(=O)c2ccnc(NC(=O)Cc3ccc(C#N)cc3)c2)c2cnccc21` [Example 2, 2-(4-cyanophenyl)-N-{4-[(1-isopropyl-1H-pyrazolo[4,3-c]pyridin-3-yl)carbonyl]pyridin-2-yl}acetamide], 20.4 nM.
